Values quoted from earlier work as cited in patent US9320732B2, “1,2,5-oxadiazoles as inhibitors of indoleamine 2,3-dioxygenase” (Incyte Corporation, priority 2008, dated 2016).

Assays:
[1] = test system: LLC tumors; conditions: C57Bl/6 mice, versus placebo
[2] = test system: allogeneic concepti in pregnant mice; conditions: pregnant mice exposed to 1MT
[3] = test system: P815 tumor; conditions: immune-competent pre-immunized mice

Structure (SMILES): Cn1cc(C[C@H](N)C(=O)O)c2ccccc21 [Example 1-MT, 1-methyl-tryptophan]
- formation of LLC tumors [1]: markedly delayed
- rejection of allogeneic concepti [2]: rapid, T cell-induced rejection of all allogeneic concepti
- growth of tumors in pre-immunization model [3]: inhibited
